# Experimental data reported in PubChem BioAssay (NCI).
#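 Results reflect a 48-hour exposure of cells in 96-well plates to compound at five concentrations. At the GI50, growth is halved. TGI: total growth inhibition.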
# Key:
# Test in all cases: NCI-60 cell line screen, 48 h
# K-562 leukemia = system: K-562 leukemia
# A549 NSCLC = system: A549 NSCLC
# A498 renal = system: A498 renal
# SK-MEL-5 melanoma = system: SK-MEL-5 melanoma
# HOP-92 NSCLC = system: HOP-92 NSCLC
# T-47D breast = system: T-47D breast
# SK-MEL-28 melanoma = system: SK-MEL-28 melanoma
# NCI-H522 lung = system: NCI-H522 lung
# TK-10 renal = system: TK-10 renal
# MDA-MB-435 = system: MDA-MB-435
# DU-145 prostate = system: DU-145 prostate
# SW-620 colon = system: SW-620 colon
# MCF7 breast = system: MCF7 breast
# M14 melanoma = system: M14 melanoma
# SN12C renal = system: SN12C renal
# MALME-3M melanoma = system: MALME-3M melanoma
# SF-268 CNS = system: SF-268 CNS
# 786-0 renal = system: 786-0 renal
# HCC-2998 colon = system: HCC-2998 colon
# PC-3 prostate = system: PC-3 prostate
# ACHN renal = system: ACHN renal
# SNB-19 CNS = system: SNB-19 CNS
# CAKI-1 renal = system: CAKI-1 renal
# COLO 205 colon = system: COLO 205 colon
# SK-OV-3 ovarian = system: SK-OV-3 ovarian
# HS 578T breast = system: HS 578T breast
# NCI/ADR-RES ovarian = system: NCI/ADR-RES ovarian
# SK-MEL-2 melanoma = system: SK-MEL-2 melanoma
# UACC-62 melanoma = system: UACC-62 melanoma
# HL-60(TB) leukemia = system: HL-60(TB) leukemia
# UO-31 renal = system: UO-31 renal
# RXF 393 renal = system: RXF 393 renal
# LOX IMVI melanoma = system: LOX IMVI melanoma
# MDA-MB-231 breast = system: MDA-MB-231 breast
# IGROV1 ovarian = system: IGROV1 ovarian
# OVCAR-5 ovarian = system: OVCAR-5 ovarian
# OVCAR-3 ovarian = system: OVCAR-3 ovarian
# HCT-15 colon = system: HCT-15 colon
# NCI-H23 lung = system: NCI-H23 lung
# U251 CNS = system: U251 CNS
# UACC-257 melanoma = system: UACC-257 melanoma
# NCI-H226 lung = system: NCI-H226 lung
# RPMI-8226 leukemia = system: RPMI-8226 leukemia
# OVCAR-4 ovarian = system: OVCAR-4 ovarian
# SF-295 CNS = system: SF-295 CNS
# SNB-75 CNS = system: SNB-75 CNS
# KM12 colon = system: KM12 colon
# CCRF-CEM leukemia = system: CCRF-CEM leukemia
# HOP-62 NSCLC = system: HOP-62 NSCLC
# HT29 colon = system: HT29 colon
# HCT-116 colon = system: HCT-116 colon
# EKVX NSCLC = system: EKVX NSCLC
# OVCAR-8 ovarian = system: OVCAR-8 ovarian
# SF-539 CNS = system: SF-539 CNS
# BT-549 breast = system: BT-549 breast
smiles,measurement,setting,value
O=C(O)c1cn(C2CC2)c2cc(N3CCN(Cc4c(O)ccc5ccccc45)CC3)c(F)cc2c1=O,GI50,K-562 leukemia,> 100 µM
same,TGI,K-562 leukemia,> 100 µM
same,GI50,A549 NSCLC,4.03 µM
same,TGI,A549 NSCLC,> 100 µM
same,GI50,A498 renal,1.48 µM
same,TGI,A498 renal,4.47 µM
same,GI50,SK-MEL-5 melanoma,5.45 µM
same,TGI,SK-MEL-5 melanoma,> 100 µM
same,GI50,HOP-92 NSCLC,2.46 µM
same,TGI,HOP-92 NSCLC,8.88 µM
same,GI50,T-47D breast,> 100 µM
same,TGI,T-47D breast,> 100 µM
same,GI50,SK-MEL-28 melanoma,6.32 µM
same,TGI,SK-MEL-28 melanoma,> 100 µM
same,GI50,NCI-H522 lung,2.82 µM
same,TGI,NCI-H522 lung,> 100 µM
same,GI50,TK-10 renal,2.66 µM
same,TGI,TK-10 renal,8.38 µM
same,GI50,MDA-MB-435,4.18 µM
same,TGI,MDA-MB-435,> 100 µM
same,GI50,DU-145 prostate,3.78 µM
same,TGI,DU-145 prostate,> 100 µM
same,GI50,SW-620 colon,4.12 µM
same,TGI,SW-620 colon,> 100 µM
same,GI50,MCF7 breast,5.63 µM
same,TGI,MCF7 breast,> 100 µM
same,GI50,M14 melanoma,3.95 µM
same,TGI,M14 melanoma,> 100 µM
same,GI50,SN12C renal,5.38 µM
same,TGI,SN12C renal,> 100 µM
same,GI50,MALME-3M melanoma,4.07 µM
same,TGI,MALME-3M melanoma,> 100 µM
same,GI50,SF-268 CNS,56.8 µM
same,TGI,SF-268 CNS,> 100 µM
same,GI50,786-0 renal,2.58 µM
same,TGI,786-0 renal,7.05 µM
same,GI50,HCC-2998 colon,> 100 µM
same,TGI,HCC-2998 colon,> 100 µM
same,GI50,PC-3 prostate,3.75 µM
same,TGI,PC-3 prostate,> 100 µM
same,GI50,ACHN renal,29.6 µM
same,TGI,ACHN renal,> 100 µM
same,GI50,SNB-19 CNS,91.5 µM
same,TGI,SNB-19 CNS,> 100 µM
same,GI50,CAKI-1 renal,3.29 µM
same,TGI,CAKI-1 renal,> 100 µM
same,GI50,COLO 205 colon,5.13 µM
same,TGI,COLO 205 colon,> 100 µM
same,GI50,SK-OV-3 ovarian,11.7 µM
same,TGI,SK-OV-3 ovarian,> 100 µM
same,GI50,HS 578T breast,2.74 µM
same,TGI,HS 578T breast,17.2 µM
same,GI50,NCI/ADR-RES ovarian,11.4 µM
same,TGI,NCI/ADR-RES ovarian,> 100 µM
same,GI50,SK-MEL-2 melanoma,15.1 µM
same,TGI,SK-MEL-2 melanoma,> 100 µM
same,GI50,UACC-62 melanoma,13.5 µM
same,TGI,UACC-62 melanoma,> 100 µM
same,GI50,HL-60(TB) leukemia,> 100 µM
same,TGI,HL-60(TB) leukemia,> 100 µM
same,GI50,UO-31 renal,3.71 µM
same,TGI,UO-31 renal,> 100 µM
same,GI50,RXF 393 renal,2.68 µM
same,TGI,RXF 393 renal,8.34 µM
same,GI50,LOX IMVI melanoma,4.67 µM
same,TGI,LOX IMVI melanoma,> 100 µM
same,GI50,MDA-MB-231 breast,5.15 µM
same,TGI,MDA-MB-231 breast,> 100 µM
same,GI50,IGROV1 ovarian,9.64 µM
same,TGI,IGROV1 ovarian,> 100 µM
same,GI50,OVCAR-5 ovarian,> 100 µM
same,TGI,OVCAR-5 ovarian,> 100 µM
same,GI50,OVCAR-3 ovarian,3.4 µM
same,TGI,OVCAR-3 ovarian,22.6 µM
same,GI50,HCT-15 colon,3.64 µM
same,TGI,HCT-15 colon,> 100 µM
same,GI50,NCI-H23 lung,4.63 µM
same,TGI,NCI-H23 lung,> 100 µM
same,GI50,U251 CNS,19 µM
same,TGI,U251 CNS,> 100 µM
same,GI50,UACC-257 melanoma,> 100 µM
same,TGI,UACC-257 melanoma,> 100 µM
same,GI50,NCI-H226 lung,5.45 µM
same,TGI,NCI-H226 lung,> 100 µM
same,GI50,RPMI-8226 leukemia,12 µM
same,TGI,RPMI-8226 leukemia,> 100 µM
same,GI50,OVCAR-4 ovarian,7 µM
same,TGI,OVCAR-4 ovarian,> 100 µM
same,GI50,SF-295 CNS,8.22 µM
same,TGI,SF-295 CNS,> 100 µM
same,GI50,SNB-75 CNS,1.94 µM
same,TGI,SNB-75 CNS,17.8 µM
same,GI50,KM12 colon,9.18 µM
same,TGI,KM12 colon,> 100 µM
same,GI50,CCRF-CEM leukemia,20.5 µM
same,TGI,CCRF-CEM leukemia,> 100 µM
same,GI50,HOP-62 NSCLC,3.99 µM
same,TGI,HOP-62 NSCLC,43.1 µM
same,GI50,HT29 colon,8.5 µM
same,TGI,HT29 colon,> 100 µM
same,GI50,HCT-116 colon,2.37 µM
same,TGI,HCT-116 colon,6.17 µM
same,GI50,EKVX NSCLC,> 100 µM
same,TGI,EKVX NSCLC,> 100 µM
same,GI50,OVCAR-8 ovarian,4.61 µM
same,TGI,OVCAR-8 ovarian,> 100 µM
same,GI50,SF-539 CNS,2.1 µM
same,TGI,SF-539 CNS,4.9 µM
same,GI50,BT-549 breast,3.5 µM
same,TGI,BT-549 breast,48.7 µM
